The nature of series [1]: Simulated Intestinal Fluid (SIF) Stability Assay. The class given is in vitro ADME. Conditions: 37° C.; for half-life: simulated gi fluid, porcine pancreatin; for half-life at 22 μM: pig, simulated intestinal fluid (SIF) with 1% porcine pancreatin, pH 6.5, porcine pancreatin. In outline: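 Percent peptide remaining over time was measured by LC-MS/MS as the peak-area ratio to internal standard, and a first-order decay fit gave half-life. Digests contained 22 μM peptide and 1% pancreatin in pH 6.5 FaSSIF buffer at 37° C. Aliquots were quenched in organic solvent with formic acid.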

The nature of series [2]: Simulated Gastric Fluid (SGF) Stability Assay. In kind it is in vitro ADME. Conditions: pH 2, 37° C.; for half-life: simulated gi fluid, porcine pepsin; for half-life at 20 μM: pig, simulated gastric fluid (SGF) with porcine pepsin. As for the experimental part: Simulated Gastric Fluid (SGF) Stability Assays
Studies were carried out in simulated gastric fluid (SGF) to evaluate intestinal stability of the peptide molecules of the instant invention. SGF was prepared by adding 20 mg NaCl, 32 mg porcine pepsin (MP Biochemicals, catalog 02102599), and 70 μl HCl to 10 ml water (final pH=2). Aliquots of SGF (0.5 ml each) were pre-warmed at 37° C. To start the reaction, 1 μl of peptide stock solution (10 mM in DMSO) was added to 0.5 ml SGF and thoroughly mixed such that the final peptide concentration was 20 μM. The reactions were incubated at 37° C. with gentle shaking. At each time point (0, 15, 30, 60 min) 50 μl aliquots were removed and added to 200 μl acetonitrile containing 0.1% formic acid to quench the reaction. Samples are stored at 4° C. until the end of the experiment and centrifuged at 10,000 rpm for 5 minutes. Aliquots of the supernatant were removed, diluted 1:1 into distilled water containing internal standard, and analyzed by LCMS/MS. Percent remaining at each timepoint was calculated based on the peak area response ratio of test to compound to internal standard. Time 0 was set to 100%, and all later timepoints were calculated relative to time 0. Half-lives were calculated by fitting to a first-order exponential decay equation using GraphPad.

The target in a further series is T1, α4β1 (Homo sapiens, UniProt P05556+P13612).
T1 construct: purchased R&D Systems 5668-A4
T1 sequence (P13612 34-977 limits assumed): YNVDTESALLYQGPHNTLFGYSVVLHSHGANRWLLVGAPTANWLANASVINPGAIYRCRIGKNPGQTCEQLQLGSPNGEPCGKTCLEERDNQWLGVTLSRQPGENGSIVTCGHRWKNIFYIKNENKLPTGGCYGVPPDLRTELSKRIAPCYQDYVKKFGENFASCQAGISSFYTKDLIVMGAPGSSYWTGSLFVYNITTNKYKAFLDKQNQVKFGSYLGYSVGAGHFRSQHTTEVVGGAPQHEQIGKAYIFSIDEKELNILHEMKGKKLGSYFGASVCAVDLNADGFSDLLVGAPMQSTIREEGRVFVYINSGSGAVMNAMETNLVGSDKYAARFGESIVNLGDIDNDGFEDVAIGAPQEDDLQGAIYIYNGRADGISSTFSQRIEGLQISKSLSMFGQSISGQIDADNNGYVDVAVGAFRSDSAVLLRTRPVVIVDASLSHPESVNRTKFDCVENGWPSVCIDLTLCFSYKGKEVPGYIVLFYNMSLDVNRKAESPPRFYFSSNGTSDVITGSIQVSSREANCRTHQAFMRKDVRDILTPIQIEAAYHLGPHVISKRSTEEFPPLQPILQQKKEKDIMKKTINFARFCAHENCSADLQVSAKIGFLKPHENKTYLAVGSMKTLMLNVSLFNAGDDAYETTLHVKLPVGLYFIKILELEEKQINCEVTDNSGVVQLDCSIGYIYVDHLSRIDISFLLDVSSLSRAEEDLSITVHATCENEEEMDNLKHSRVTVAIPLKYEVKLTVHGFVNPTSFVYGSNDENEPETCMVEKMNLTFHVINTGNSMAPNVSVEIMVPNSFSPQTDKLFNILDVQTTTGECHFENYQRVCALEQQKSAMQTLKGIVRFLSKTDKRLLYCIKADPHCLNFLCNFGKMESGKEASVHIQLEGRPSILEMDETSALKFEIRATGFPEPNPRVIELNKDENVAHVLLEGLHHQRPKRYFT
T1 sequence (P05556 21-728 limits assumed): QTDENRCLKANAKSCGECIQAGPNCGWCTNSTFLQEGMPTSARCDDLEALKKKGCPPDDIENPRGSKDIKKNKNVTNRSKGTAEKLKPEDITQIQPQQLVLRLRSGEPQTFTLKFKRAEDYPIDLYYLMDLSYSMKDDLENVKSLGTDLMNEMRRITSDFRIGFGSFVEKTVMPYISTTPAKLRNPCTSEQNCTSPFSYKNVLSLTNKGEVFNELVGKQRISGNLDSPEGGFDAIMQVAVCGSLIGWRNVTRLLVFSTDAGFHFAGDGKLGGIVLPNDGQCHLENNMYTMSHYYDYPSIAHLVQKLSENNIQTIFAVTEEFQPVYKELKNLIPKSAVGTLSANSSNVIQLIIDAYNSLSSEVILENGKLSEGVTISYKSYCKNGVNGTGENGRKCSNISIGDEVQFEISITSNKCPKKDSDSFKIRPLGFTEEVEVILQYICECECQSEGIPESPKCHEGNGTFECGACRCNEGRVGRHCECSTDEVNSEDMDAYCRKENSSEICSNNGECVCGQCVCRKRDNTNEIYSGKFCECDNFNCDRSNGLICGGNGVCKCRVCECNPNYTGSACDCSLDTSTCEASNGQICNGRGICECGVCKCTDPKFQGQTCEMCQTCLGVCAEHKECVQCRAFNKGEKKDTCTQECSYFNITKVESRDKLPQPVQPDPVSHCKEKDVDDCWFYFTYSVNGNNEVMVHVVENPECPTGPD
Put plainly: α4β1-VCAM Competition ELISA. Conditions: thioether peptide dimers, Table 7; read-out: ELISA A4B1. The class given is binding. As for the experimental part:
α4β1-VCAM Competition ELISA
A Nunc MaxiSorp plate was coated with rh VCAM-1/CD106 Fc chimera (R&D #862-VC) at 400 ng/well in 50 ul per well in 1×PBS and incubated overnight at 4° C. The solution was removed by shaking and then blocked with 250 ul of 1% BSA in 1×PBS per well. The wells were then incubated at room temperature for 1 hr with shaking. Each well was then washed once with wash buffer (50 mM Tris-HCl pH7.6, 100 mM NaCL, 1 mM MnCl2 or MgCl2, 0.05% Tween-20). 25 ul of serial dilutions of peptides starting at 200 μM in assay buffer (Assay buffer: 50 mM Tris-HCl pH7.6, 100 mM NaCl, 1 mM MnCl2 or MgCl2, 0.05% Tween-20) was added to each well. Additionally, 25 μl of α4β1 (R&D Systems #5668-A4) was added to each well at a fixed concentration of 120 nM. The final peptide and α4β1 concentrations were 100 μM and 60 nM, respectively. The plates were then incubated at 37° C. for 2 hr. The solution was then removed by shaking and each well was washed three times with wash buffer. 50 ul of 9F10 antibody at 4 ug/ml (purified mouse anti-human CD49d, BD Bioscience Cat #555502) was then added to each well, and the plate was incubated at room temperature for Ihr with shaking. The solution was again removed by shaking, and each well was washed three times with wash buffer. 50 μl of peroxidase-conjugated AffiniPure Goat anti-mouse IgG (Jackson immune research cat #115-035-003) diluted in 1:5000 in assay buffer was added to each well. The plate was incubated at room temperature for 30 min with shaking. Each well was then washed 3 times with wash buffer. 100 ul of TMB was then added to each well and closely observe during developing time. The reaction was stepped with 2N H2SO4 and absorbance was read at 450 nm.

The target of a further series is Jurkat E6.1 cells (Homo sapiens, UniProt P05556+P13612). Description: α4β1-VCAM Cell Adhesion Assay. The class given is cell-based. Conditions: thioether peptide dimers, Table 7; read-out: Cell Adhesion A4B1. As to the method:
α4β1-VCAM Cell Adhesion Assay
Jurkat E6.1 cells (Sigma #88042803) were cultured in RPMI 1640 HEPES medium (Invitrogen #22400-089) supplemented with 10% serum (Fetal Bovine Serum, Invitrogen #16140-071), 1 mM sodium pyruvate (Invitrogen #11360-070), 2 mM L-glutamine (Invitrogen #25030-081) and Penicillin-Streptomycin (Invitrogen #15140-122) at 100 units of penicillin and 100 μg of streptomycin per ml. The cells were washed two times in DMEM medium (ATCC #30-2002) supplemented with 0.1% BSA, 10 mM HEPES pH 7 and 1 mM MnCl2. The cells were re-suspended in supplemented DMEM medium at a density of 4×10^6 cells/ml.
A Nunc MaxiSorp plate was coated with rh VCAM-1/CD106 Fc chimera (R&D #862-VC) at 400 ng per well in 50 μl per well in 1×PBS and incubated at 4° C. overnight. The solution was then removed by shaking, blocked with 250 μl per well PBS containing 1% BSA, and incubated at 37° C. for 1 hr. The solution was removed by shaking. Peptides were diluted by serial dilution in a final volume of 50 μl per well (2× concentration). To each well, 50 μl of cells (200,000 cells) were added and the plate was incubated at 37° C., 5% CO2 for 30-45 min to allow cell adhesion. The wells were washed manually three times (100 μl per wash) with supplemented DMEM. After the final wash, 100 μl/well of supplemented DMEM and 10 ul/well of MTT reagent (ATTC cat #30-1010K) were added. The plate was incubated at 37° C., 5% CO2 for 2-3 hrs until a purple precipitate is visible. 100 ul of Detergent Reagent (ATTC cat #30-1010K) is added to each well. The plate was covered from the light, wrapped in Parafilm to prevent evaporation, and left overnight at room temperature in the dark. The plate was shaken for 5 min and the absorbance at 570 nm is measured. To calculate the dose response, the absorbance value of control wells not containing cells was subtracted from each test well.

*1 amine or outer side, *2 acyl side, *3 side chain or, on linkers, in order; H or OH if unused. Where a SMILES comes first, the peptide text is derived from it. Bridges are numbered along the chain shown (N, C = ends). Roman numbers before positions name the chains, in order. [ ]: non-standard residue; d: D form. Diglycolyl = O=C(COCC(=O)[*:2])[*:1]; NMeR = CN[C@@H](CCCNC(=N)N)C(=O)O; β3hE = N[C@@H](CCC(=O)O)CC(=O)O; X1 = O=C(c1ccccc1C[*:2])[*:1]; Pen = CC(C)(S)[C@H](N)C(=O)O

Here are results for six molecules from US20260217767A1, “NOVEL A4B7 THIOETHER PEPTIDE DIMER ANTAGONISTS” (Protagonist Therapeutics, Inc., priority 2014, published 2026).

Jurkat E6.1 cells, sequence (P13612 34-1032): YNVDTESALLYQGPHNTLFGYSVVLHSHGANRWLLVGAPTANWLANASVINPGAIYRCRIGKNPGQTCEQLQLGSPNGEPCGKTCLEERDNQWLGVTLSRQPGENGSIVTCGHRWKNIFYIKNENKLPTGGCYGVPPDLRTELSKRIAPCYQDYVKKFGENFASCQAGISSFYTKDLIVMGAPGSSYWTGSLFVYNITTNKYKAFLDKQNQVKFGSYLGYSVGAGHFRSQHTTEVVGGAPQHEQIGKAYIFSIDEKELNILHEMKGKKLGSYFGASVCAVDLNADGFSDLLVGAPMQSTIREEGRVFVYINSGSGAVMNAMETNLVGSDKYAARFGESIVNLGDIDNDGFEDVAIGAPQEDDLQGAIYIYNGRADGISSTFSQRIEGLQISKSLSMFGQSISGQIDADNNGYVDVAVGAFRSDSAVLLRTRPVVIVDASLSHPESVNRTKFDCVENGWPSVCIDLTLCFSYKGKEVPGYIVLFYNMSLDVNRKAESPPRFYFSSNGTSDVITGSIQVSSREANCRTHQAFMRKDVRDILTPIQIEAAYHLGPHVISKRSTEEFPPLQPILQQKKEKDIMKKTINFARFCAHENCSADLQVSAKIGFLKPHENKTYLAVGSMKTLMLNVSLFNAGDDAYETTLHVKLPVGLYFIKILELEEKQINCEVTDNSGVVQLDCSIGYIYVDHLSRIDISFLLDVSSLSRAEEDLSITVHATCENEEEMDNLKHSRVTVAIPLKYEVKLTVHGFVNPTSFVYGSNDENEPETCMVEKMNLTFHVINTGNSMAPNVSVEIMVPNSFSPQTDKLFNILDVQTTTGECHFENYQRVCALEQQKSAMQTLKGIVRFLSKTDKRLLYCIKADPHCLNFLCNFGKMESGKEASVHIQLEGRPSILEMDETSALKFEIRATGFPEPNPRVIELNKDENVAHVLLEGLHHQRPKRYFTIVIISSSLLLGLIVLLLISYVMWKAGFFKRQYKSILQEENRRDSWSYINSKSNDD
Jurkat E6.1 cells, sequence (P05556 21-798): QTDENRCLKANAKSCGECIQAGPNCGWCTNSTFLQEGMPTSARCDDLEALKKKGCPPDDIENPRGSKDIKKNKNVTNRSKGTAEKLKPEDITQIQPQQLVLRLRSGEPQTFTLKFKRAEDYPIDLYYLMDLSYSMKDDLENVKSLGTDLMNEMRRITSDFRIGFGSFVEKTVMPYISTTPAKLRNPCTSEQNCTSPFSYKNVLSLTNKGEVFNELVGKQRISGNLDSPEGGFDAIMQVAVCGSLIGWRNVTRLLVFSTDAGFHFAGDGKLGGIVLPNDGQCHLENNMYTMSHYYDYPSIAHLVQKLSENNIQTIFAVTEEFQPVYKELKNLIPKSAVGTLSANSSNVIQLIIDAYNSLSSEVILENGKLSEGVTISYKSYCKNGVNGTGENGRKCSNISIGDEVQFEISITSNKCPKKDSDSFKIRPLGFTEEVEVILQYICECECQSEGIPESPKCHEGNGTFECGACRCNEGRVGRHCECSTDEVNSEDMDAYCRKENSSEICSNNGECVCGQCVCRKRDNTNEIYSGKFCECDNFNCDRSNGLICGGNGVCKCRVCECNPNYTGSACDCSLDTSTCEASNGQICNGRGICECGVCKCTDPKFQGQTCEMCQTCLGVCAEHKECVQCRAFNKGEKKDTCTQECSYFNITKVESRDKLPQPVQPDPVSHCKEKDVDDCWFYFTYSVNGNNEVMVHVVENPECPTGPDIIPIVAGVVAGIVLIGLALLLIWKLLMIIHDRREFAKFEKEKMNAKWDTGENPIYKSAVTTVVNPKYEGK

Take `CC(C)C[C@@H]1NC(=O)[C@H]([C@@H](C)O)NC(=O)[C@H](CC(=O)O)NC(=O)[C@H](CO)NC(=O)[C@H](CCCNC(=N)N)N(C)C(=O)c2ccccc2CSC(C)(C)[C@@H](C(=O)N[C@@H](Cc2c[nH]c3ccccc23)C(=O)N[C@H](CCC(=O)O)C(N)=O)NC1=O` [compound 97] (HELM PEPTIDE1{[meR].S.D.T.L.[Pen].W.[dE].[am]}|CHEM1{[O=C(c1ccccc1C[*:2])[*:1]]}$PEPTIDE1,CHEM1,1:R1-1:R1|PEPTIDE1,CHEM1,6:R3-1:R2$$$V2.0): the half-life in series [1] (monomers, Table 6) is more than 3 h; in series [2] (monomers, Table 6), more than 3 h.
Turning to `CC(C)C[C@@H]1NC(=O)[C@H]([C@@H](C)O)NC(=O)[C@H](CC(=O)O)NC(=O)[C@H](CO)NC(=O)[C@H](CCCNC(=N)N)N(C)C(=O)c2ccccc2CSC(C)(C)[C@@H](C(=O)N[C@@H](Cc2c[nH]c3ccccc23)C(=O)N[C@H](CCC(=O)O)C(=O)N[C@H](CCCCN)C(N)=O)NC1=O` [compound 150] (HELM PEPTIDE1{[meR].S.D.T.L.[Pen].W.[dE].[dK].[am]}|CHEM1{[O=C(c1ccccc1C[*:2])[*:1]]}$PEPTIDE1,CHEM1,1:R1-1:R1|PEPTIDE1,CHEM1,6:R3-1:R2$$$V2.0), the half-life in series [1] (dimers, Table 7) is more than 3 h; in series [2] (dimers, Table 7), more than 3 h.
Consider `CC(C)C[C@@H]1NC(=O)[C@H]([C@@H](C)O)NC(=O)[C@H](CC(=O)O)NC(=O)[C@H](CO)NC(=O)[C@H](CCCNC(=N)N)N(C)C(=O)c2ccccc2CSC(C)(C)[C@@H](C(=O)N[C@@H](Cc2c[nH]c3ccccc23)C(=O)N[C@@H](CCC(=O)O)C(=O)N(C)[C@H](CCCCN)C(N)=O)NC1=O` [compound 152] (HELM PEPTIDE1{[meR].S.D.T.L.[Pen].W.E.[CN([C@H](CCCCN)C(=O)[*:2])[*:1]].[am]}|CHEM1{[O=C(c1ccccc1C[*:2])[*:1]]}$PEPTIDE1,CHEM1,1:R1-1:R1|PEPTIDE1,CHEM1,6:R3-1:R2$$$V2.0), for which the results for the IC50 at α4β1 and on Jurkat E6.1 cells were 25 to 100 nM and more than 100000 nM, respectively. The half-life at 22 μM in series [1] (dimers, Table 7) was more than 3 h. Also, the half-life at 20 μM in series [2] (dimers, Table 7) is more than 1 h.
Take `CC(C)C[C@@H]1NC(=O)[C@H]([C@@H](C)O)NC(=O)[C@H](CC(=O)O)NC(=O)[C@H](CO)NC(=O)[C@H](CCCNC(=N)N)N(C)C(=O)c2ccccc2CSC(C)(C)[C@@H](C(=O)N[C@@H](Cc2ccccc2)C(=O)N[C@@H](CCC(=O)O)CC(=O)N[C@H](CCCCN)C(N)=O)NC1=O` [compound 164] (HELM PEPTIDE1{[meR].S.D.T.L.[Pen].F.[O=C(O)CC[C@@H](CC(=O)[*:2])N[*:1]].[dK].[am]}|CHEM1{[O=C(c1ccccc1C[*:2])[*:1]]}$PEPTIDE1,CHEM1,1:R1-1:R1|PEPTIDE1,CHEM1,6:R3-1:R2$$$V2.0): the values for the IC50 at α4β1 and at Jurkat E6.1 cells were 25 to 100 nM and more than 100000 nM, respectively. The same molecule showed a half-life at 22 μM in series [1] (dimers, Table 7) of more than 3 h. In series [2] (dimers, Table 7), this molecule displayed a half-life at 20 μM of more than 1 h.
The molecule `CC(C)C[C@@H]1NC(=O)[C@H]([C@@H](C)O)NC(=O)[C@H](CC(=O)O)NC(=O)[C@H](CO)NC(=O)[C@H](CCCNC(=N)N)N(C)C(=O)c2ccccc2CSC(C)(C)[C@@H](C(=O)N[C@@H](Cc2ccc(O)cc2)C(=O)N[C@@H](CCC(=O)O)CC(=O)N[C@H](CCCCNC(=O)COCC(=O)NCCCC[C@@H](NC(=O)C[C@H](CCC(=O)O)NC(=O)[C@H](Cc2ccc(O)cc2)NC(=O)[C@H]2NC(=O)[C@H](CC(C)C)NC(=O)[C@H]([C@@H](C)O)NC(=O)[C@H](CC(=O)O)NC(=O)[C@H](CO)NC(=O)[C@H](CCCNC(=N)N)N(C)C(=O)c3ccccc3CSC2(C)C)C(N)=O)C(N)=O)NC1=O` [compound 165] (I: [NMeR]SDTL[Pen]Y[β3hE][dK]-NH2 / II: [NMeR]SDTL[Pen]Y[β3hE][dK]-NH2; linker I:9-II:9 via Diglycolyl; linker I:N-I:6, II:N-II:6 via X1) yielded a half-life at 22 μM in series [1] (dimers, Table 7) of more than 3 h. The molecule also displayed a half-life at 20 μM in series [2] (dimers, Table 7) of more than 1 h.
As for `CC(C)C[C@@H]1NC(=O)[C@H]([C@@H](C)O)NC(=O)[C@H](CC(=O)O)NC(=O)[C@H](CO)NC(=O)[C@H](CCCNC(=N)N)N(C)C(=O)c2ccccc2CSC(C)(C)[C@@H](C(=O)N[C@@H](Cc2ccc(O)cc2)C(=O)N[C@H](CCC(=O)O)C(=O)N[C@H](CCCCN)C(N)=O)NC1=O` [compound 169] (HELM PEPTIDE1{[meR].S.D.T.L.[Pen].Y.[dE].[dK].[am]}|CHEM1{[O=C(c1ccccc1C[*:2])[*:1]]}$PEPTIDE1,CHEM1,1:R1-1:R1|PEPTIDE1,CHEM1,6:R3-1:R2$$$V2.0), the IC50 on α4β1 is 100 to 1000 nM; at Jurkat E6.1 cells it was more than 100000 nM. The same molecule displayed a half-life at 22 μM in series [1] (dimers, Table 7) of more than 3 h. The half-life at 20 μM in series [2] (dimers, Table 7) was more than 3 h.
